In brackets after ≈: the same amount, converted by molar mass. Read-outs that look alike come from different tables or passages of the source. Ends that are not written are not given here.
Columns and labels:
B. cepacia ATCC 25416 = assay: Two stage radial diffusion assay (MIC); format: cell-based; parameters: unit not given here; details: underlay 0 mM NaCl
N. gonorrhoeae = assay: Two stage radial diffusion assay (MIC); format: cell-based; parameters: unit not given here; details: done only at 100 mM NaCl
L. monocytogenes EGD = assay: Two stage radial diffusion assay (MIC); format: cell-based; parameters: unit not given here; details: underlay 0 mM NaCl
E. coli ML-35p = details: for E. coli ML-35p MIC, 0 mM NaCl: underlay 0 mM NaCl; for MIC E. coli [NaCl] High: high salt underlay (10 mM sodium phosphate buffer +100 mM NaCl, pH 7.4); for MIC E. coli [NaCl] High / MIC E. coli [NaCl] Low: Table 13; for MIC E. coli [NaCl] Low: low salt underlay (10 mM sodium phosphate buffer, pH 7.4)
P. aeruginosa MR 3007 = details: for MIC P. aeruginosa [NaCl] High / MIC P. aeruginosa [NaCl] Low: MR 3007, pH 7.4
S. aureus 930918-3 = details: for MIC S. aureus [NaCl] High / MIC S. aureus [NaCl] Low: 930918-3, pH 7.4
MRSA ATCC 33591 = details: for MIC MRSA [NaCl] High / MIC MRSA [NaCl] Low: ATCC 33591, pH 7.4
E. coli DH5α = details: for EC50: DH5α; for EC50 E. coli DH5α: ionic strength 25 mM, avg ± sem
E. coli DH-5α = details: DH-5α
[1] = ionic strength 25 mM, avg ± sem
[2] = ionic strength 175 mM, avg ± sem

Row | Compound | EC50 P. aeruginosa PAO1 (P. aeruginosa PAO1; [1]) [µg/mL] | EC50 P. aeruginosa PAO1 (P. aeruginosa PAO1; [2]) [µg/mL] | MIC E. coli [NaCl] High (E. coli ML-35p) [µg/mL] | MIC E. coli [NaCl] Low (E. coli ML-35p) [µg/mL] | MIC P. aeruginosa [NaCl] High (P. aeruginosa MR 3007) [µg/mL] | MIC P. aeruginosa [NaCl] Low (P. aeruginosa MR 3007) [µg/mL] | MIC S. aureus [NaCl] High (S. aureus 930918-3) [µg/mL] | MIC S. aureus [NaCl] Low (S. aureus 930918-3) [µg/mL] | MIC MRSA [NaCl] High (MRSA ATCC 33591) [µg/mL] | MIC MRSA [NaCl] Low (MRSA ATCC 33591) [µg/mL] | other results
1 | CC[C@H](C)[C@H](N)C(=O)N[C@@H](CCCNC(=N)N)C(=O)N[C@@H](CCCNC(=N)N)C(=O)N[C@H](C(=O)N[C@H](C(=O)N[C@@H](CCCNC(=N)N)C(=O)N[C@@H](CCCCN)C(=O)N[C@H](C(=O)N[C@H](C(=O)N[C@@H](Cc1c[nH]cn1)C(=O)N[C@H](C(=O)N[C@H](C(=O)N[C@@H](CCCCN)C(=O)N[C@@H](CCCCN)C(=O)O)[C@@H](C)CC)[C@@H](C)CC)[C@@H](C)CC)[C@@H](C)CC)[C@@H](C)CC)[C@@H](C)CC [SMAP29X-14D] | 0.65 ± 0.06 (≈ 0.361 µM) | 7.11 ± 2.40 (≈ 3.95 µM) |  |  |  |  |  |  |  |  | 
2 | CC[C@H](C)[C@H](NC(=O)[C@H](CCCNC(=N)N)NC(=O)[C@H](CCCNC(=N)N)NC(=O)[C@@H](NC(=O)[C@@H](N)CC(N)=O)[C@@H](C)CC)C(=O)N[C@H](C(=O)N[C@@H](CCCNC(=N)N)C(=O)N[C@@H](CCCCN)C(=O)N[C@H](C(=O)N[C@H](C(=O)N[C@@H](Cc1c[nH]cn1)C(=O)N[C@H](C(=O)N[C@H](C(=O)N[C@@H](CCCCN)C(=O)N[C@@H](CCCCN)C(=O)N[C@@H](Cc1ccc(O)cc1)C(N)=O)[C@@H](C)CC)[C@@H](C)CC)[C@@H](C)CC)[C@@H](C)CC)[C@@H](C)CC [SMAP29X-16C] | 0.65 (≈ 0.313 µM) | 2.21 (≈ 1.06 µM) |  |  |  |  |  |  |  |  | 
3 | GLRKRLRKFRNKIKEKLKKIG [Peptide 19] |  |  |  |  |  |  |  |  |  |  | B. cepacia ATCC 25416 in underlays of low, normal and high salinity, 0 mM NaCl (B. cepacia ATCC 25416): >250; N. gonorrhoeae F 62 (serum-sensitive) (N. gonorrhoeae; strain F 62 (serum-sensitive)): 0.6; N. gonorrhoeae FA 19 (serum-resistant) (N. gonorrhoeae; strain FA 19 (serum-resistant)): >79.1; L. monocytogenes in underlays of low, normal and high salinity, 0 mM NaCl (L. monocytogenes EGD): 0.3; E. coli ML-35p MIC, 0 mM NaCl (E. coli ML-35p; Table 15): 2.3 µg/mL; P. aeruginosa MR-3007 MIC, 0 mM NaCl (P. aeruginosa MR 3007): 0.7 µg/mL; S. aureus 930918-3 MIC, 0 mM NaCl (S. aureus 930918-3): 1.8 µg/mL; MRSA ATCC 33591 MIC, 0 mM NaCl (MRSA ATCC 33591): 19.4 µg/mL
4 | IRRIIRKIIHIIKK-NH2 [Peptide 13] |  |  |  |  |  |  |  |  |  |  | P. aeruginosa MR-3007 MIC, 0 mM NaCl (P. aeruginosa MR 3007): 0.84 ± 0.06 µg/mL; P. aeruginosa MR-3007 MIC, 175 mM NaCl (P. aeruginosa MR 3007): 19.7 ± 2.2 µg/mL; S. aureus 930918-3 MIC, 0 mM NaCl (S. aureus 930918-3): 1.03 ± 0.03 µg/mL; S. aureus 930918-3 MIC, 175 mM NaCl (S. aureus 930918-3): 5.93 ± 1.12 µg/mL; MRSA ATCC 33591 MIC, 0 mM NaCl (MRSA ATCC 33591): 2.39 ± 0.07 µg/mL; MRSA ATCC 33591 MIC, 175 mM NaCl (MRSA ATCC 33591): >79.1 µg/mL; P. aeruginosa PA-01 MIC, 0 mM NaCl (P. aeruginosa PA-01): 1.03 ± 0.08 µg/mL; P. aeruginosa PA-01 MIC, 175 mM NaCl (P. aeruginosa PA-01): 7.45 ± 0.87 µg/mL
5 | IRRIIRKIIHIIKK-NH2 [SMAP29X-14C] | 0.29 ± 0.04 | 1.21 ± 0.05 |  |  |  |  |  |  |  |  | 
6 | KIKEKLKKIGQKIQG [CAP18-15b] | 10.3 ± 0.3 |  | >250 | 1.6 | >250 | 8.7 | >250 | >250 | >250 | >250 | EC50 P. aeruginosa PAO1 (P. aeruginosa PAO1; PAO1): >80 µg/mL; EC50 (E. coli DH5α): 4.15 ± 1.04 µM; EC50 E. coli DH5α (E. coli DH5α): 7.23 ± 1.81 µg/mL
7 | KIKEKLKKIGQKIQGLL [CAP18-17] | 2.33 ± 0.35 |  | 1.9 | 9.7 | >250 | 5.1 | >250 | >250 | >250 | >250 | EC50 P. aeruginosa PAO1 (P. aeruginosa PAO1; PAO1): >25 µg/mL; EC50 (E. coli DH5α): 1.27 ± 0.2 µM; EC50 E. coli DH5α (E. coli DH5α): 2.51 ± 0.38 µg/mL
8 | KNIRRIIRKIIHIIKKYG [SMAP29X-18C] | 0.24 ± 0.01 | 0.61 ± 0.12 |  |  |  |  |  |  |  |  | 
9 | KNIRRIIRKIIHIIKKYG-NH2 [SMAP29X-18B] | 0.16 ± 0.01 | 0.54 ± 0.05 |  |  |  |  |  |  |  |  | 
10 | KNLRRIIRKIIHIIKKYG-NH2 [SMAP29X-18A] | 0.22 ± 0.00 | 0.49 ± 0.02 |  |  |  |  |  |  |  |  | 
11 | KNLRRIIRKIIHIIKKYGPTILRIIRIIG-NH2 [SMAP29X] | 2.74 ± 0.65 | 4.51 ± 0.24 | 0.8 | 1.5 | 1.0 | 2.6 | 1.5 | 1.6 | 1.0 | 6.2 | 
12 | LRKFRNKIKEKLKKIGQKIQG [CAP18-21b] | 1.83 ± 0.51 | 3.45 ± 0.02 | 0.5 | 2.3 | 23.5 | 2.9 | >250 | 16.3 | >250 | 10.3 | EC50 (E. coli DH5α): 1.17 ± 0.13 µM; EC50 E. coli DH5α (E. coli DH5α): 2.99 ± 0.33 µg/mL
13 | LRRIIRKIIHIIK-NH2 [Peptide 15] |  |  |  |  |  |  |  |  |  |  | E. coli ML-35p MIC, 0 mM NaCl (E. coli ML-35p; Table 15): 0.64 ± 0.15 µg/mL; E. coli ML-35p MIC, 175 mM NaCl (E. coli ML-35p; underlay 175 mM NaCl, Table 15): 12.6 ± 2.8 µg/mL; P. aeruginosa MR-3007 MIC, 0 mM NaCl (P. aeruginosa MR 3007): 0.96 ± 0.08 µg/mL; P. aeruginosa MR-3007 MIC, 175 mM NaCl (P. aeruginosa MR 3007): 9.14 ± 4.81 µg/mL; S. aureus 930918-3 MIC, 0 mM NaCl (S. aureus 930918-3): 1.32 ± 0.22 µg/mL; S. aureus 930918-3 MIC, 175 mM NaCl (S. aureus 930918-3): 6.39 ± 1.12 µg/mL; MRSA ATCC 33591 MIC, 0 mM NaCl (MRSA ATCC 33591): 2.49 ± 0.27 µg/mL; MRSA ATCC 33591 MIC, 175 mM NaCl (MRSA ATCC 33591): 65.8 ± 13.3 µg/mL; E. coli DH-5α MIC, 0 mM NaCl (E. coli DH-5α): 0.82 ± 0.12 µg/mL; E. coli DH-5α MIC, 175 mM NaCl (E. coli DH-5α): 5.35 ± 1.87 µg/mL; P. aeruginosa PA-01 MIC, 0 mM NaCl (P. aeruginosa PA-01): 1.07 ± 0.19 µg/mL; P. aeruginosa PA-01 MIC, 175 mM NaCl (P. aeruginosa PA-01): 4.66 ± 1.57 µg/mL

— US7071293B1, “Alpha helical peptides with broad spectrum antimicrobial activity that are insensitive to salt” (priority 1999, dated 2006)
